Test results: the NIST ThermoML archive (doi:10.1016/j.jct.2012.09.018)

Assay: mn = molality of the nth substance listed, in mol/kg
Settings: 101 kPa, Liquid, Pycnometric method

CC(C)C[C@H](NC(=O)CN)C(=O)O [glycyl-L-leucine] + O
293.15 K
Settings | mass density [kg/m3]
m1 = 0.01984 | 999.17
m1 = 0.02628 | 999.49
m1 = 0.03301 | 999.83
m1 = 0.03973 | 1000.15
m1 = 0.04936 | 1000.61
m1 = 0.05894 | 1001.06
m1 = 0.06889 | 1001.56
m1 = 0.07838 | 1002.04
m1 = 0.08821 | 1002.51

CC(C)[C@H](NC(=O)CN)C(=O)O [glycyl-L-valine] + O
293.15 K
Settings | mass density [kg/m3]
m1 = 0.01993 | 999.24
m1 = 0.04051 | 1000.32
m1 = 0.06065 | 1001.37
m1 = 0.08097 | 1002.43
m1 = 0.1005 | 1003.46
m1 = 0.1203 | 1004.51
m1 = 0.1403 | 1005.53
m1 = 0.1594 | 1006.55
m1 = 0.1799 | 1007.62
m1 = 0.1995 | 1008.64

NCC(=O)NCC(=O)O [glycylglycine] + O
293.15 K
Settings | mass density [kg/m3]
m1 = 0.02014 | 999.33
m1 = 0.04077 | 1000.49
m1 = 0.06148 | 1001.64
m1 = 0.09135 | 1003.33
m1 = 0.1226 | 1005.06
m1 = 0.1538 | 1006.84
m1 = 0.1823 | 1008.4
m1 = 0.2128 | 1010.11
m1 = 0.2534 | 1012.46

O=C([O-])C(F)(F)C(F)(F)C(F)(F)C(F)(F)C(F)(F)C(F)(F)C(F)(F)F.[Na+] [sodium perfluorooctanoate] + O
m1 = 0.04
Settings | mass density [kg/m3]
293.15 K | 1007.53
298.15 K | 1006.24
303.15 K | 1004.73
308.15 K | 1003.15
